Source: patent US10669287B2, “Curcumin-boron complex and pharmaceutical containing same” (JAPAN SCIENCE AND TECHNOLOGY AGENCY, priority 2016, dated 2020)
“Also recorded” adds a separate entry of the source. Read-outs that look alike come from different tables or passages of the source.

Key:
PC 12 cells [1] = assay: Cytotoxicity under light irradiation, WST-8 cell viability, Test Example 2; assay type: cell-based, rat; settings: LED 660 nm, 10 mW, 5 minutes, then 48 hours
Procedure: A culture medium for rat adrenal medulla-derived pheochromocytoma PC 12 cells (purchased from RIKEN, Japan) seeded on a poly-D-lysine-coated 96-well plate was replaced with 75 μL of a Dulbecco's modified Eagle's medium containing 0.1% horse serum, and the culture was incubated in a 5% CO2 atmosphere at 37° C. for 1 day, and 25 μL of a phosphate buffer saline (pH 7.4) containing a inventive compound was then added thereto. Thereafter, the mixed solution was incubated under LED irradiation (wavelength: 660 nm, 10 mW) (without light irradiation for dark) at 37° C. for 5 minutes. Further, the cell culture plate containing the reaction solution was incubated in a 5% CO2 atmosphere at 37° C. for 48 hours. Finally, the Cell Count Reagent SF (10 μL: purchased from NACALAI TESQUE, INC.) containing WST-8 was added, and the culture was incubated in a 5% CO2 atmosphere at 37° C. for 3 hours, and thereafter the cell viability was determined from the absorbance at 450 nm (reference wavelength: 655 nm).

[2] = Maximum wavelength λmax of photocatalysts; assay type: physicochemical; settings: Table 1
Aβ1-42 [3] = target: T1, Aβ1-42 (Homo sapiens, UniProt P05067); assay: Degree of oxygenation of pre-aggregated Aβ1-42 (MALDI-TOF MS), Test Example 10; assay type: biochemical; settings: pre-aggregated Aβ1-42 20 μM, catalyst 2 μM, phosphate buffer pH 7.4, 660 nm, 37° C., 30 minutes
T1 construct: phosphate buffer (pH 7.4)/cell culture solution (containing 0.1% horse serum) (1:3) containing Aβ1-42 (10 μM)
Procedure: Aβ1-42 isopeptide (concentration: 250 μM in 0.1% aqueous solution of trifluoroacetic acid), angiotensin IV (200 μM aqueous solution), Met-enkephalin (200 μM aqueous solution), and somatostatin (200 μM aqueous solution) were added to a phosphate buffer or phosphate buffer saline (pH 7.4) (with 0.1 M aqueous solution of sodium hydroxide, as necessary) so that a final peptide concentration of 20 μM or 40 μM (pH 7.4) was reached. Before being subjected to oxygenation reaction, the Aβ1-42 solution was incubated at 37° C. for 1 to 3 hours. The phosphate buffer containing 40 μM of Aβ was diluted with a Dulbecco's modified Eagle's medium (DMEM, Life Technologies) containing 0.1% horse serum and buffered with 25 mM of 4-(2-hydroxyethyl)-1-piperazineethanesulfonic acid (HEPES).
Solutions of the compounds with a final concentration of 2 μM were used for evaluation of oxygenation of Aβ1-42. Solutions of the compounds with a final concentration of 5 μM were used for evaluation of peptide selectivity. Each mixture was subjected to light irradiation with an LED (wavelength: 500, 660, or 780 nm) at a distance of approximately 5 to 10 cm at room temperature. A control group without light irradiation was additionally prepared. Reaction was analyzed through monitor analysis with a MALDI-TOF MS. Degree of oxygenation was determined as a ratio: degree of oxygenation (%)=(total of MS intensities for n[O] adducts)/(MS intensity for native+total of MS intensities for n[O] adducts)×100. Aliquots of each reaction solution were desalted with a ZipTip U-C18 (Merck Millipore), as necessary, before mass spectrometry.
a: A phosphate buffer (pH 7.4) solution containing pre-aggregated Aβ1-42 (20 μM, incubated at 37° C. for 3 hours) and a catalyst (2 μM) was subjected to light irradiation (wavelength: 660 nm) at 37° C. for 30 minutes. Thereafter, the reaction mixture was analyzed by using a MALDI-TOF MS.
a: A phosphate buffer (pH 7.4) containing pre-aggregated Aβ1-42 (20 μM, obtained through incubation at 37° C. for 3 hours) and a catalyst (2 μM) were subjected to light irradiation at 780 nm (14 mW) at 37° C. for 30 minutes. The reaction mixture was analyzed by using a MALDI-TOF MS.

[4] = Stability of catalyst in neutral phosphate buffer without or under light irradiation (HPLC), Test Example 5; assay type: physicochemical; settings: under light irradiation (660 nm)
Procedure: A neutral phosphate buffer containing a catalyst was incubated without light irradiation or under light irradiation (660 nm), and thereafter ethanol containing benzyl alcohol (as an internal standard) was added thereto, and analysis was performed by using HPLC.

[5] = Oxygenation of benzoylmethionine in glycerol/water (LC/MS), Test Example 4; settings: compound 2 μM, benzoylmethionine 2000 μM, glycerol/water 0:100 to 50:50, LED 730 nm, room temperature
Procedure: The compound K (2 μM) was added to glycerol/water (0:100, 10:90, 30:70, 50:50) dissolving benzoylmethionine (2000 μM) therein, and the resultant was subjected to LED irradiation (wavelength: 730 nm) at room temperature, and thereafter the reaction was tracked by using LC/MS (ESI-Q).

Aβ1-42 [6] = target: T1, Aβ1-42; assay: In vitro oxygenation experiment using Aβ1-42 as a substrate (MALDI-TOF MS), Test Example 1; assay type: biochemical; settings: test compound 1 μM, Aβ1-42 10 μM, LED irradiation at 730 nm, 37° C.
Procedure: An in vitro oxygenation experiment using Aβ1-42 as a substrate was conducted to confirm that each of the inventive compounds actually have Aβ oxygenation activity. A test compound (1 μM in each case) was added to phosphate buffer (pH 7.4)/cell culture solution (containing 0.1% horse serum) (1:3) containing Aβ1-42 (10 μM), and incubated under LED irradiation (wavelength: 660 nm, 730 nm) at 37° C., and then the reaction was tracked by using a mass spectrometer (MALDI-TOF MS). The native Aβ1-42 and the Na^+ adduct were mainly observed before light irradiation. After light irradiation, an ion peak indicating the presence of the oxygenated form was observed over time (FIG. 1, FIG. 2).

PC 12 cells [7] = assay type: cell-based; settings: 5 minutes then 48 hours, n=5, mean±SEM, Table 1
Procedure: Rat pheochromocytoma PC 12 cells were suspended with DMEM containing 5% horse serum and 10% fetal bovine serum, seeded in a poly-D-lysine-coated 96-well plate at a concentration of 10,000 cells per well, and incubated in a 5% carbon dioxide atmosphere at 37° C. for 3 days. After the solvent was removed, the cells were washed with 150 μL of serum-free DMEM, and DMEM (75 μL) containing 0.1% horse serum was added thereto. Thereafter, the 96-well plate was incubated in a 5% carbon dioxide atmosphere at 37° C. for 1 day for use in oxygenation reaction. In oxygenation reaction, the compound E (100 μM dimethyl sulfoxide solution) was added to a phosphate buffer saline containing Aβ (aggregated in advance for 3 hours, 40 μM) and 25 μL of the above cell solution (final concentration of Aβ: 10 μM, final concentration of compound E: 1 μM). The mixture was irradiated with an LED (wavelength: 780 nm) at a distance of approximately 5 cm at 37° C. for 5 minutes. The cells were incubated in a 5% carbon dioxide atmosphere at 37° C. for 48 hours. The cell viability was measured by using the Cell Count Reagent SF (NACALAI TESQUE, INC., Kyoto, Japan) with WST-8 (2-(2-methoxy-4-nitrophenyl)-3-(4-nitrophenyl)-5-(2,4-disulfophenyl)-2H-tetrazolium).
b: LC50 (dark) indicates the toxicity of a compound itself, and LC50 (light) indicates the phototoxicity of a compound. The PC 12 cells were placed in dark or subjected to photocatalytic treatment under light irradiation (wavelength: 660 nm), and incubated at 37° C. for 5 minutes, and then in a 5% carbon dioxide atmosphere at 37° C. for 48 hours, for which the cell viability was analyzed (n=5, mean±SEM).
b: The PC 12 cells were treated together with a photocatalyst (1 μM) at 37° C. for 5 minutes in dark or under light irradiation (wavelength: 780 nm), and thereafter the cell viability was analyzed (n=3, mean±SEM).

T1 sequence (P05067 672-713): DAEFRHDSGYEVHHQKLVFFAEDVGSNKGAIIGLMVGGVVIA

## CN(C)c1ccc(/C=C/C2=C(Br)C(/C=C/c3ccc4c(c3)CCCN4CCCCCC(=O)O)=[O+][B-](F)(C(F)(F)F)O2)cc1 (centres unmarked) [Compound K]
PC 12 cells [1]
  toxicity under light irradiation (ranking): higher in the order of the compound J, the compound K, and the compound L; also recorded: iodine provides more reduced toxicity than in the case of bromine
[2]
  Maximum wavelength λmax (nm): 620 nm
Aβ1-42 [3]
  Degree of oxygenation (%) of Aβ42 (λ = 660 nm): 86%
[4]
  stability of catalyst (ranking): higher in the order of BFCF3 (compound K)<BFCF2CF3 (compound J)
[5]
  benzoylmethionine/oxygenated form ratio (%): higher as the concentration of glycerol, which has high viscosity, was higher
Aβ1-42 [6]
  oxygenation of Aβ1-42 under light irradiation: oxygenation of the Aβ proceeded
PC 12 cells [7]; PC 12 cells in dark, read-out: LC50 (dark)
  CC50: 1.89 µM
PC 12 cells [7]; PC 12 cells, light irradiation 660 nm, read-out: LC50 (light)
  CC50: 0.143 µM
